Reference: PubChem BioAssay (NCI)
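GI50 = concentration required for 50% inhibition of growth. TGI is the concentration that stops growth completely.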

Assays:
Assay in all cases: inhibition of tumour cell growth, NCI panel, 384-well format
HCT-15 colon = system: HCT-15 colon
K-562 leukemia = system: K-562 leukemia
RXF 393 renal = system: RXF 393 renal
SF-539 CNS = system: SF-539 CNS
NCI-H322M lung = system: NCI-H322M lung
RPMI-8226 leukemia = system: RPMI-8226 leukemia
MDA-MB-468 breast = system: MDA-MB-468 breast
SR leukemia = system: SR leukemia
MOLT-4 leukemia = system: MOLT-4 leukemia
SF-295 CNS = system: SF-295 CNS
NCI/ADR-RES ovarian = system: NCI/ADR-RES ovarian
OVCAR-5 ovarian = system: OVCAR-5 ovarian
786-0 renal = system: 786-0 renal
NCI-H460 NSCLC = system: NCI-H460 NSCLC
HS 578T breast = system: HS 578T breast
SN12C renal = system: SN12C renal
HT29 colon = system: HT29 colon
HCC-2998 colon = system: HCC-2998 colon

FC(F)(c1ccc2ncccc2c1)c1nnc2ccc(-c3ccncc3)nn12
GI50 (HCT-15 colon): 55.7 nM
TGI (HCT-15 colon): > 100000 nM
GI50 (K-562 leukemia): 219 nM
TGI (K-562 leukemia): > 100000 nM
GI50 (RXF 393 renal): 11.2 nM
TGI (RXF 393 renal): 206 nM
GI50 (SF-539 CNS): 164 nM
TGI (SF-539 CNS): > 100000 nM
GI50 (NCI-H322M lung): < 10 nM
TGI (NCI-H322M lung): > 100000 nM
GI50 (RPMI-8226 leukemia): < 10 nM
GI50 (MDA-MB-468 breast): 22 nM
TGI (MDA-MB-468 breast): 628 nM
GI50 (SR leukemia): < 10 nM
TGI (SR leukemia): 126 nM
GI50 (MOLT-4 leukemia): 10.2 nM
TGI (MOLT-4 leukemia): 183 nM
GI50 (SF-295 CNS): < 10 nM
TGI (SF-295 CNS): 108 nM
GI50 (NCI/ADR-RES ovarian): 460 nM
TGI (NCI/ADR-RES ovarian): 27200 nM
GI50 (OVCAR-5 ovarian): 112 nM
TGI (OVCAR-5 ovarian): > 100000 nM
GI50 ([…]-0 renal): 191 nM
TGI (786-0 renal): > 100000 nM
GI50 (NCI-H460 NSCLC): < 10 nM
TGI (NCI-H460 NSCLC): > 100000 nM
GI50 (HS 578T breast): < 10 nM
TGI (HS 578T breast): 137 nM
GI50 (SN12C renal): 33 nM
TGI (SN12C renal): > 100000 nM
GI50 (HT29 colon): 185 nM
TGI (HT29 colon): > 100000 nM
GI50 (HCC-2998 colon): < 10 nM
TGI (HCC-2998 colon): > 100000 nM
